Assay results published in patent publication US20100069249A1, “HERBICIDE COMBINATION COMPRISING DIMETHOXYTRIAZINYL-SUBSTITUTED DIFLUOROMETHANESULFONYLANILIDES” (BAYER CROPSCIENCE AG, priority 2008, published 2010).

Legend:
Test in all cases: Post-emergence action against weeds, greenhouse pot test
Format in all cases: in vivo
[1] = test system: Oryza sativa (ORYSA)
Protocol: (§1) Seeds or rhizome pieces of mono- and dicotyledonous harmful and useful plants were placed in peat pots (diameter 4 cm) filled with sandy loam and then covered with soil. The pots were kept in a greenhouse under optimum conditions. In addition, harmful plants encountered in paddy rice cultivation were cultivated in pots with a water level 2 cm above the soil surface.
(§2) About three weeks after the start of the cultivation, the test plants were treated at the 2- to 3-leaf stage. The herbicides, formulated as powder or liquid concentrates, were, either alone or in the combinations according to the invention, sprayed in various dosages on to the green parts of the plants using an application rate of 600 l of water/ha (converted). For further cultivation of the plants, the pots were then again kept under optimum conditions in a greenhouse.
(§3) The visual scoring of the herbicidal effects was carried out in intervals up to 21 days after the treatment. Scoring was carried out in percent in comparison to the untreated control plants. 0%=no herbicidal activity, 100%=complete herbicidal activity=complete kill.
(§4) The percentages from the treatments with the herbicides alone (=individual application) and with the combinations according to the invention (=mixtures) were employed to calculate interactions using the method of Colby. When the observed efficacies of the mixtures exceed the formal sum of the values of the tests with individual applications, they also exceed the expected value according to Colby, which is calculated using the formula below (cf. S. R. Colby; in Weeds 15 (1967) pp. 20 to 22):
(§5) • A, B=activity of components A and B in percent at a dosage of a and b g of ai/ha (=gram of active substance per hectare), respectively. • E=expected value in % at a dosage of a+b g of ai/ha.

[2] = test system: Triticum aestivum (TRZAS)
Protocol: as §1, §2, §3, §4, §5

[3] = test system: Zea mays (ZEAMX)
Protocol: as §1, §2, §3, §4, §5

[4] = test system: Fallopia (ex Polygonum) convolvulus (POLCO); settings: 21 DAT; B 50 g of ai/ha
Protocol: as §1
as §2, with “greenhouse. […]” for “greenhouse.”
as §4, with “22): […]” for “22):”

[5] = test system: Alopecurus myosuroides (ALOMY); settings: 21 DAT
Protocol: as §1, §2, §3, §4, §5

[6] = test system: Matricaria inodora (MATIN); settings: 21 DAT; B 50 g of ai/ha
Protocol: as §1, §2, §3, §4, §5

[7] = test system: Setaria viridis (SETVI); settings: 21 DAT; B 50 g of ai/ha
Protocol: as §1, §2, §3, §4, §5

[8] = test system: Viola tricolor (VIOTR); settings: 21 DAT; B 50 g of ai/ha
Protocol: as §1, §2, §3, §4, §5

Structure (SMILES)	% activity found ([1]; 10/21 DAT, A 4 g of ai/ha) [%]	% activity found ([2]; 21 DAT, A 12 g of ai/ha) [%]	% activity found ([3]; 21 DAT, A 4 g of ai/ha) [%]	% activity found [4] [%]	% activity found ([5]; B 50 g of ai/ha) [%]	% activity found ([5]; B 150 g of ai/ha) [%]	% activity found [6] [%]	% activity found ([1]; 10/21 DAT, B 50 g of ai/ha) [%]	% activity found ([1]; 10/21 DAT, B 150 g of ai/ha) [%]	% activity found ([1]; 21 DAT, B 150 g of ai/ha) [%]	% activity found [7] [%]	% activity found ([2]; 10 DAT, B 50 g of ai/ha) [%]	% activity found ([2]; 10 DAT, B 150 g of ai/ha) [%]	% activity found ([2]; 21 DAT, B 50 g of ai/ha) [%]	% activity found [8] [%]	% activity found ([3]; 10 DAT, B 50 g of ai/ha) [%]	% activity found ([3]; 10 DAT, B 150 g of ai/ha) [%]	% activity found ([3]; 21 DAT, B 50 g of ai/ha) [%]	% activity found ([3]; 21 DAT, B 150 g of ai/ha) [%]
COc1nc(OC)nc(C(=O)c2cccc(F)c2N(C)S(=O)(=O)C(F)F)n1 [A-1]	0	0	0																
CP(=O)(O)CC[C@H](N)C(=O)O [B1-8, (2S)-2-amino-4-[hydroxy(methyl)phosphinyl]butanoic acid]				40	0	20	60	10	30	30	80	20	30	20	40	30	40	0	0
